Results: patent publication US7531646B2, “β-D-ribosidase activity indicators with a chromogenic substrate” (priority 2001, dated 2009)

Experiments:
Type in all cases: cell-based
[1] = tested on: E. coli 0157; assay: Substrate hydrolysis on Columbia agar; settings: 300 mg/l, 18 hours
[2] = tested on: Hafnia alvei; assay: Substrate hydrolysis on Columbia agar; settings: 300 mg/l, 18 hours
[3] = tested on: C. diversus; assay: Substrate hydrolysis on Columbia agar; settings: 300 mg/l, 18 hours
[4] = tested on: Serratia spp.; assay: Substrate hydrolysis on Columbia agar; settings: 300 mg/l, 18 hours
[5] = tested on: E. aerogenes; assay: Substrate hydrolysis on Columbia agar; settings: 300 mg/l, 18 hours
[6] = tested on: Salmonella typhimurium; assay: Substrate hydrolysis on Columbia agar; settings: Salmonella typhimurium NCTC 74; 300 mg/l; 18 hours
[7] = tested on: Y. enterocolitica; assay: Substrate hydrolysis on Columbia agar; settings: 300 mg/l, 18 hours
[8] = tested on: P. aeruginosa; assay: Substrate hydrolysis on Columbia agar; settings: 300 mg/l, 18 hours
[9] = tested on: M. morganii; assay: Substrate hydrolysis on Columbia agar; settings: 300 mg/l, 18 hours
[10] = tested on: Providencia stuartii; assay: Substrate hydrolysis on Columbia agar; settings: 300 mg/l, 18 hours
[11] = tested on: Providencia alcalifaciens; assay: Substrate hydrolysis on Columbia agar; settings: 300 mg/l, 18 hours
[12] = tested on: Vibrio cholerae; assay: Substrate hydrolysis on Columbia agar; settings: 300 mg/l, 18 hours
[13] = tested on: Vibrio cincinnatiensis; assay: Substrate hydrolysis on Columbia agar; settings: Vibrio cincinnatiensis NCTC 12012; 300 mg/l; 18 hours
[14] = tested on: Vibrio fluvialis; assay: Substrate hydrolysis on Columbia agar; set-up: key to the marks not given beside the values; settings: Vibrio fluvialis NCTC 11327; 300 mg/l; 18 hours
[15] = tested on: Vibrio alcaligenes; assay: Substrate hydrolysis on Columbia agar; settings: Vibrio alcaligenes NCTC 12160; 300 mg/l; 18 hours
[16] = tested on: Streptococcus oralis; assay: Substrate hydrolysis on Columbia agar; settings: Streptococcus oralis NCTC11427; 300 mg/l; 18 hours
[17] = tested on: Streptococcus sanguis; assay: Substrate hydrolysis on Columbia agar; settings: Streptococcus sanguis NCTC 7863; 300 mg/l; 18 hours
[18] = tested on: Streptococcus crista; assay: Substrate hydrolysis on Columbia agar; settings: Streptococcus crista NCTC 12479; 300 mg/l; 18 hours
[19] = tested on: Streptococcus agalactiae; assay: Substrate hydrolysis on Columbia agar; settings: Streptococcus agalactiae NCTC 8181; 300 mg/l; 18 hours
[20] = tested on: Streptococcus milleri; assay: Substrate hydrolysis on Columbia agar; settings: Streptococcus milleri wild; 300 mg/l; 18 hours
[21] = tested on: Haemolytic streptococcus A; assay: Substrate hydrolysis on Columbia agar; settings: 300 mg/l, 18 hours
[22] = tested on: Arcanobacterium haemolyticus; assay: Substrate hydrolysis on Columbia agar; settings: Arcanobacterium haemolyticus NCTC 52; 300 mg/l; 18 hours
[23] = tested on: Bacillus cereus; assay: Substrate hydrolysis on Columbia agar; settings: Bacillus cereus NCTC; 300 mg/l; 18 hours
[24] = tested on: Staphylococcus haemolyticus; assay: Substrate hydrolysis on Columbia agar; settings: 300 mg/l, 18 hours
[25] = tested on: Staphylococcus epidermidis; assay: Substrate hydrolysis on Columbia agar; settings: 300 mg/l, 18 hours
[26] = tested on: Enterococcus raffinosis; assay: Substrate hydrolysis on Columbia agar; settings: Enterococcus raffinosis NCTC 13192; 300 mg/l; 18 hours
[27] = tested on: Enterococcus mundtii; assay: Substrate hydrolysis on Columbia agar; settings: Enterococcus mundtii NCTC 12363; 300 mg/l; 18 hours
[28] = tested on: Enterococcus faecalis; assay: Substrate hydrolysis on Columbia agar; settings: 300 mg/l, 18 hours
[29] = tested on: Gram negative bacteria; assay: Substrate hydrolysis on Columbia agar, summary of screen
[30] = tested on: Gram positive bacteria; assay: as above

3′,4′-dihydroxyflavone-4′-β-D-glucopyranoside sodium salt [DHF-glucoside]
Hydrolysis by Gram negative bacteria ([1]; E. coli 0157 NCTC 12079): − | Hydrolysis by Gram negative bacteria ([1]; E. coli 0157 NCTC 12080): − | Hydrolysis by Gram negative bacteria ([1]; E. coli 0157 NCTC 12900): − | Hydrolysis by Gram negative bacteria ([1]; E. coli 0157 NCTC 13125): − | Hydrolysis by Gram negative bacteria ([1]; E. coli 0157 NCTC 13126): − | Hydrolysis by Gram negative bacteria ([1]; E. coli 0157 NCTC 13127): − | Hydrolysis by Gram negative bacteria ([1]; E. coli 0157 NCTC 13128): − | Hydrolysis by Gram negative bacteria ([2]; Hafnia alvei HAL 2): − | Hydrolysis by Gram negative bacteria ([2]; Hafnia alvei NCTC 8105): − | Hydrolysis by Gram negative bacteria ([3]; C. diversus CDI 1): − | Hydrolysis by Gram negative bacteria ([3]; C. diversus CDI 2): − | Hydrolysis by Gram negative bacteria ([4]; Serratia spp. SEX 1): + | Hydrolysis by Gram negative bacteria ([4]; Serratia spp. SEX 2): + | Hydrolysis by Gram negative bacteria ([5]; E. aerogenes EAE 1): + | Hydrolysis by Gram negative bacteria ([5]; E. aerogenes NCIMB 10102): + | Hydrolysis by Gram negative bacteria [6]: − | Hydrolysis by Gram negative bacteria ([7]; Y. enterocolitica NCTC 10460): − | Hydrolysis by Gram negative bacteria ([7]; Y. enterocolitica NCTC 11176): − | Hydrolysis by Gram negative bacteria ([7]; Y. enterocolitica NCTC 11177): − | Hydrolysis by Gram negative bacteria ([7]; Y. enterocolitica NCTC 11600): − | Hydrolysis by Gram negative bacteria ([8]; P. aeruginosa ATCC 10145): − | Hydrolysis by Gram negative bacteria ([8]; P. aeruginosa NCTC 10662): − | Hydrolysis by Gram negative bacteria ([9]; M. morganii MMO 1): + | Hydrolysis by Gram negative bacteria ([9]; M. morganii MMO 2): + | Hydrolysis by Gram negative bacteria ([9]; M. morganii NCTC 235): − | Hydrolysis by Gram negative bacteria ([10]; Providencia stuartii PST 1): + | Hydrolysis by Gram negative bacteria ([10]; Providencia stuartii PST 2): + | Hydrolysis by Gram negative bacteria ([11]; Providencia alcalifaciens PAL 1): + | Hydrolysis by Gram negative bacteria ([11]; Providencia alcalifaciens PAL 2): + | Hydrolysis by Gram negative bacteria ([12]; Vibrio cholera NCTC 6585): − | Hydrolysis by Gram negative bacteria ([12]; Vibrio cholera NCTC 7270): − | Hydrolysis by Gram negative bacteria ([12]; Vibrio cholera NCTC 8021): − | Hydrolysis by Gram negative bacteria ([12]; Vibrio cholera NCTC 10732): − | Hydrolysis by Gram negative bacteria ([12]; Vibrio cholera NCTC 12945): − | Hydrolysis by Gram negative bacteria ([12]; Vibrio cholerae NCTC 7254): − | Hydrolysis by Gram negative bacteria ([12]; Vibrio cholerae NCTC 8042): − | Hydrolysis by Gram negative bacteria ([12]; Vibrio cholerae NCTC 10255): − | Hydrolysis by Gram negative bacteria ([12]; Vibrio cholerae NCTC 10954): − | Hydrolysis by Gram negative bacteria [13]: + | Hydrolysis by Gram negative bacteria [14]: ++ | Hydrolysis by Gram negative bacteria [15]: − | Hydrolysis by Gram positive organisms [16]: − | Hydrolysis by Gram positive organisms [17]: − | Hydrolysis by Gram positive organisms [18]: − | Hydrolysis by Gram positive organisms [19]: − | Hydrolysis by Gram positive organisms [20]: − | Hydrolysis by Gram positive organisms ([21]; Haemolytic streptococcus A 1): − | Hydrolysis by Gram positive organisms ([21]; Haemolytic streptococcus A 2): − | Hydrolysis by Gram positive organisms ([21]; Haemolytic streptococcus A 3): − | Hydrolysis by Gram positive organisms [22]: − | Hydrolysis by Gram positive organisms [23]: + | Hydrolysis by Gram positive organisms ([24]; Staphylococcus haemolyticus RB 66): − | Hydrolysis by Gram positive organisms ([24]; Staphylococcus haemolyticus RB 67): − | Hydrolysis by Gram positive organisms ([24]; Staphylococcus haemolyticus RB 68): − | Hydrolysis by Gram positive organisms ([24]; Staphylococcus haemolyticus RB 69): − | Hydrolysis by Gram positive organisms ([24]; Staphylococcus haemolyticus RB 70): − | Hydrolysis by Gram positive organisms ([25]; Staphylococcus epidermidis RB60): − | Hydrolysis by Gram positive organisms ([25]; Staphylococcus epidermidis RB62): − | Hydrolysis by Gram positive organisms ([25]; Staphylococcus epidermidis RB63): − | Hydrolysis by Gram positive organisms ([25]; Staphylococcus epidermidis RB64): ++ | Hydrolysis by Gram positive organisms ([25]; Staphylococcus epidermidis RB65): − | Hydrolysis by Gram positive organisms [26]: ++ | Hydrolysis by Gram positive organisms [27]: ++ | Hydrolysis by Gram positive organisms ([28]; Enterococcus faecalis 1): ++ | Hydrolysis by Gram positive organisms ([28]; Enterococcus faecalis 2): ++ | Hydrolysis by Gram positive organisms ([28]; Enterococcus faecalis 3): ++ | Hydrolysis by Gram positive organisms ([28]; Enterococcus faecalis 4): ++ | Hydrolysis by Gram positive organisms ([28]; Enterococcus faecalis 5): ++ | Hydrolysis by Gram positive organisms ([28]; Enterococcus faecalis 6): ++ | Hydrolysis by Gram positive organisms ([28]; Enterococcus faecalis 7): ++ | strains known to be producers of β-glucosidase which did not appear to hydrolyse the substrate ([29]; of 120 Gram negative bacteria tested): 11 strains | Gram negative bacteria tested that hydrolysed the substrate ([29]; of 120 Gram negative bacteria tested, 300 mg/l, 18 hours): 20% | colouration and diffusion of positive strains ([29]; positive Gram negative strains, agar): brown/black colouration which showed no diffusion in agar | colony colour and diffusion ([30]; Strains of Listeria and enterococci): intense black colonies with no diffusion of the black chelate | Gram positive bacteria tested that hydrolysed the substrate ([30]; of 74 Gram positive bacteria tested, 300 mg/l, 18 hours): 22.5%
